The source made the active and inactive calls. The rule behind the calls is not given here.
How the values were obtained:
[1] = target: Melanocyte-stimulating hormone receptor (Mus musculus, UniProt Q01727); experiment: Displacement of [125I]NDP-MSH from MC1 receptor in mouse B16 cells; type: cell-based
Melanocortin receptor 3 [2] = target: T1, Melanocortin receptor 3 (Homo sapiens, UniProt P41968); experiment: Displacement of [125I]NDP-MSH from human recombinant MC3 receptor expressed in Sf9 cells
T1 sequence (P41968 whole entry): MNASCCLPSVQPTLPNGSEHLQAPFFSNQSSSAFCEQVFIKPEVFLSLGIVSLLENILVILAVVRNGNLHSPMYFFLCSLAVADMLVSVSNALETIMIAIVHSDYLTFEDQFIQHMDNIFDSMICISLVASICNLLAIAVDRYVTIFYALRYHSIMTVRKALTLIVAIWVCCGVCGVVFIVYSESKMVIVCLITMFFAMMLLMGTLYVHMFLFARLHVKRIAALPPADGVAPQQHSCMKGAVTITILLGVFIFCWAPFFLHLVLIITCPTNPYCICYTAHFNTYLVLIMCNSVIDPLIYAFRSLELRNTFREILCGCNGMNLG

Melanocortin receptor 4 [3] = target: T2, Melanocortin receptor 4 (Homo sapiens, UniProt P32245); experiment: Displacement of [125I]NDP-MSH from human recombinant MC4 receptor expressed in Sf9 cells
T2 sequence (P32245 whole entry): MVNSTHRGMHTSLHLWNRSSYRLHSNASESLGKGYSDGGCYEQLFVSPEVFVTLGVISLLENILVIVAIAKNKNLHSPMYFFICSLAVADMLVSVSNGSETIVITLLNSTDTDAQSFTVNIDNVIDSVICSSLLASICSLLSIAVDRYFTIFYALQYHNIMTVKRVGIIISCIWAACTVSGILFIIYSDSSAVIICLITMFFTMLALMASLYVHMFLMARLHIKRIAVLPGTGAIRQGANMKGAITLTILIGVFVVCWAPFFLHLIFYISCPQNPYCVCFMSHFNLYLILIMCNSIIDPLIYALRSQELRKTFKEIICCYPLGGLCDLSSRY

Melanocortin receptor 5 [4] = target: T3, Melanocortin receptor 5 (Homo sapiens, UniProt P33032); experiment: Displacement of [125I]NDP-MSH from human recombinant MC5 receptor expressed in Sf9 cells
T3 sequence (P33032 whole entry): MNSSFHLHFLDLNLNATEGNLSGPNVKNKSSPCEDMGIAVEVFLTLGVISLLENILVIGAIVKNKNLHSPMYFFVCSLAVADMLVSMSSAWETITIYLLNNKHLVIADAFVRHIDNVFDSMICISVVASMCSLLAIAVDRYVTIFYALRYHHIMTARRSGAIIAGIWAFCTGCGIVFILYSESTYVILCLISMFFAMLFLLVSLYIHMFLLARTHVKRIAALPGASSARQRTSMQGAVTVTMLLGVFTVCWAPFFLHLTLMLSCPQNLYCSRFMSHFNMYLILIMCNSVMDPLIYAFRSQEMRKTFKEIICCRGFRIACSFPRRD

[5] = target: Melanocyte-stimulating hormone receptor (Mus musculus) (UniProt Q01727); experiment: Antagonist activity MC1 receptor in mouse B16 cells assessed as inhibition of alpha-MSH-induced cAMP accumulation at 100 uM; type: functional, cell-based
Melanocyte-stimulating hormone receptor (Mus musculus), sequence (Q01727 whole entry, looked up): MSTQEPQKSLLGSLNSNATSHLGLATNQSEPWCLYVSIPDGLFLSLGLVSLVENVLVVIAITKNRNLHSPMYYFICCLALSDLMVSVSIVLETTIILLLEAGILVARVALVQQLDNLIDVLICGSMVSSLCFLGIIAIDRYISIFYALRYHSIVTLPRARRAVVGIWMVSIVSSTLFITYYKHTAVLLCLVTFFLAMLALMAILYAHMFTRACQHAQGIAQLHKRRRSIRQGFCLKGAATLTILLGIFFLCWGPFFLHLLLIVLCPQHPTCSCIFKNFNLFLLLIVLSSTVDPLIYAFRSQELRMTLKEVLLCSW

Melanocortin receptor 3 [6] = target: T1, Melanocortin receptor 3; experiment: Antagonist activity at MC3 receptor expressed in COS1 cells assessed as inhibition of alpha-MSH-induced cAMP accumulation at 100 uM; type: functional, cell-based; details: COS-1
Melanocortin receptor 4 [7] = target: T2, Melanocortin receptor 4; experiment: Antagonist activity at MC4 receptor expressed in COS1 cells assessed as inhibition of alpha-MSH-induced cAMP accumulation at 100 uM; type: functional, cell-based; details: COS-1
Melanocortin receptor 5 [8] = target: T3, Melanocortin receptor 5; experiment: Antagonist activity at MC5 receptor expressed in COS1 cells assessed as inhibition of alpha-MSH-induced cAMP accumulation at 100 uM; type: functional, cell-based; details: COS-1
[9] = Selectivity for mouse MC1 receptor over human MC3 receptor
[10] = Selectivity for mouse MC1 receptor over human MC4 receptor
[11] = Selectivity for mouse MC1 receptor over human MC5 receptor

Melanocyte-stimulating hormone receptor, sequence (Q01727 whole entry): as the sequence (Q01727 whole entry, looked up) above

Structure (SMILES)	Ki [1]	Ki (Melanocortin receptor 3 [2])	Ki (Melanocortin receptor 4 [3])	Ki (Melanocortin receptor 5 [4])	Activity [5]	Activity (Melanocortin receptor 3 [6])	Activity (Melanocortin receptor 4 [7])	Activity (Melanocortin receptor 5 [8])	Ratio [9]	Ratio [10]	Ratio [11]
NCCCCN(Cc1ccc2ccccc2c1)C(=O)Cc1c[nH]c2ccccc12	15 µM	63 µM	111 µM	16 µM	Active	Active	Active	Active	–	–	–
NCCCCCCCCN(C/C=C/c1ccccc1)C(=O)CCc1c[nH]c2ccccc12	1.2 µM	24 µM	17 µM	40 µM	–	–	–	–	10	10	10
NCc1cccc(CN(Cc2ccccc2)C(=O)CCCc2c[nH]c3ccccc23)c1	1.9 µM	45 µM	33 µM	32 µM	–	–	–	–	10	10	10
NCCCCCN(C/C=C/c1ccccc1)C(=O)CCc1c[nH]c2ccccc12	3.7 µM	27 µM	8.1 µM	8 µM	Active	Active	Active	Active	–	–	–
N=C(N)NCCCCN(Cc1ccc2ccccc2c1)C(=O)CCc1c[nH]c2ccccc12	–	–	–	–	Active	Active	Active	Active	–	–	–
N=C(N)NCCCN(Cc1ccc2ccccc2c1)C(=O)CCc1c[nH]c2ccccc12	12 µM	53 µM	16 µM	13 µM	Active	Active	Active	Active	–	–	–
NCCCN(C(=O)Cc1c[nH]c2ccccc12)C1CCc2ccccc2C1 (stereo not drawn)	2.4 µM	37 µM	33 µM	25 µM	–	–	–	–	10	10	10
NCCN(Cc1ccc2ccccc2c1)C(=O)Cc1c[nH]c2ccccc12	36 µM	68 µM	140 µM	18 µM	Active	Active	Active	Active	–	–	–
NCCCN(Cc1ccc2ccccc2c1)C(=O)Cc1c[nH]c2ccccc12	20 µM	63 µM	161 µM	12 µM	Active	Active	Active	Active	–	–	–
NC1CCC(CC2CCC(N(Cc3c(F)cccc3Cl)C(=O)CCCc3c(Cc4ccc(O)cc4)[nH]c4ccccc34)CC2)CC1 (stereo not drawn)	1.1 µM	23 µM	1.9 µM	15 µM	–	–	–	–	–	–	–
NCCCN(C(=O)c1c[nH]c2ccccc12)C1CCc2ccccc2C1 (stereo not drawn)	4.8 µM	131 µM	74 µM	23 µM	–	–	–	–	–	–	–
COc1ccc2c(c1)c(CC(=O)N(CCCCN)C/C(C)=C/c1ccccc1)c(C)n2C(=O)c1ccc(Cl)cc1	1.8 µM	30 µM	7.1 µM	56 µM	–	–	–	–	–	–	–
NCCCCCN(Cc1ccc2ccccc2c1)C(=O)CCCc1c[nH]c2ccccc12	5.1 µM	20 µM	12 µM	34 µM	Active	Active	Active	Active	–	–	–
NC1CCC(CC2CCC(N(C/C(Cl)=C/c3ccccc3)C(=O)c3cc4cc(OCc5ccccc5)ccc4[nH]3)CC2)CC1 (stereo not drawn)	4.2 µM	12 µM	4.8 µM	12 µM	–	–	–	–	–	–	–
NCCCN(C/C(Cl)=C/c1ccccc1)C(=O)C(=O)c1c[nH]c2ccccc12	1 µM	7.4 µM	6.8 µM	4.3 µM	–	–	–	–	–	–	–
NCCCN(C/C=C/c1ccccc1)C(=O)CCc1c[nH]c2ccccc12	21 µM	65 µM	81 µM	11 µM	–	–	–	–	–	–	–
NC1CCC(CC2CCC(N(Cc3ccccc3Cl)C(=O)CCCc3c[nH]c4ccccc34)CC2)CC1 (stereo not drawn)	3.2 µM	22 µM	2.8 µM	5.2 µM	–	–	–	–	–	–	–
Cc1ccccc1CN(C(=O)CCCc1c[nH]c2ccccc12)C1CCC(CC2CCC(N)CC2)CC1 (stereo not drawn)	1.2 µM	121 µM	2.3 µM	15 µM	–	–	–	–	–	–	–
COc1cc(O)ccc1/C=C/CN(C(=O)CCCc1c[nH]c2ccccc12)C1CCC(CC2CCC(N)CC2)CC1 (stereo in doubt; form 1)	2.9 µM	37 µM	6.4 µM	7.6 µM	–	–	–	–	–	–	–
Cc1ccc(CN(C(=O)CCCc2c[nH]c3ccccc23)C2CCC(CC3CCC(N)CC3)CC2)cc1 (stereo not drawn)	1.3 µM	220 µM	2.1 µM	10 µM	–	–	–	–	–	–	–
N[C@H]1CC[C@H](C[C@H]2CC[C@H](N(C/C(Cl)=C/c3ccccc3)C(=O)CCCc3c[nH]c4ccccc34)CC2)CC1	3.1 µM	45 µM	6.8 µM	8.4 µM	–	–	–	–	–	–	–
NC1CCC(CC2CCC(N(Cc3c(Cl)cccc3Cl)C(=O)CCCc3c[nH]c4ccccc34)CC2)CC1 (stereo not drawn)	2.5 µM	25 µM	2.6 µM	7.2 µM	–	–	–	–	–	–	–
NCCCCCN(Cc1ccc2ccccc2c1)C(=O)CCc1c[nH]c2ccccc12	14 µM	58 µM	62 µM	7.3 µM	–	–	–	–	–	–	–

Structure (SMILES)	Ki [1]	Ki (Melanocortin receptor 3 [2])	Ki (Melanocortin receptor 4 [3])	Ki (Melanocortin receptor 5 [4])	Activity [5]	Activity (Melanocortin receptor 3 [6])	Activity (Melanocortin receptor 4 [7])	Activity (Melanocortin receptor 5 [8])	Ratio [9]	Ratio [10]	Ratio [11]
NC1CCC(CC2CCC(N(C/C(Cl)=C/c3ccccc3)C(=O)CCCc3c[nH]c4ccccc34)CC2)CC1 (stereo in doubt; form 5)	0.61 µM	21 µM	6 µM	3.2 µM	–	–	–	–	–	–	–
COc1cc(Br)c(CN(C(=O)CCCc2c(Cc3ccc(O)cc3)[nH]c3ccccc23)[C@H]2CC[C@@H](C[C@H]3CC[C@H](N)CC3)CC2)cc1OC	2.9 µM	5.4 µM	7.4 µM	9.1 µM	–	–	–	–	–	–	–
N=C(N)NC1CCC(CC2CCC(N(Cc3ccccc3)C(=O)CCCc3c[nH]c4ccccc34)CC2)CC1 (stereo not drawn)	1.5 µM	19 µM	3.4 µM	2.6 µM	–	–	–	–	–	–	–
NCCCN(C/C=C/c1ccccc1)C(=O)C(=O)c1c[nH]c2ccccc12	1.6 µM	17 µM	5 µM	4.9 µM	–	–	–	–	–	–	–
NCCCN(Cc1ccccc1)C(=O)CCCc1c[nH]c2ccccc12	17 µM	45 µM	16 µM	25 µM	–	–	–	–	–	–	–
CC1CC(CC2CCC(N(Cc3ccccc3)C(=O)CCCc3c[nH]c4ccccc34)C(C)C2)CCC1N (stereo in doubt; form 5)	1.3 µM	31 µM	2.1 µM	5 µM	–	–	–	–	–	–	–
NC1CCC(CC2CCC(N(Cc3c(F)cccc3F)C(=O)CCCc3c(Cc4ccc(O)cc4)[nH]c4ccccc34)CC2)CC1 (stereo not drawn)	2.1 µM	65 µM	3 µM	21 µM	–	–	–	–	–	–	–
NCCN(C(=O)COc1ccc2ccccc2c1)C1CCC2(CCCCC2)CC1	6 µM	2.1 µM	4.9 µM	3.4 µM	–	–	–	–	–	–	–
NCCCCCCN(Cc1ccccc1)C(=O)CCCc1c[nH]c2ccccc12	13 µM	43 µM	3.4 µM	3.8 µM	–	–	–	–	–	–	–
Cc1cccc(CN(C(=O)CCCc2c(Cc3ccc(O)cc3)[nH]c3ccccc23)C2CCC(CC3CCC(N)CC3)CC2)c1 (stereo not drawn)	2.9 µM	78 µM	3.4 µM	16 µM	–	–	–	–	–	–	–
NC1CCC(CC2CCC(N(C/C=C/c3ccccc3)C(=O)CCCc3c[nH]c4ccccc34)CC2)CC1 (stereo not drawn)	2.7 µM	16 µM	9.2 µM	7.7 µM	–	–	–	–	–	–	–
NCCCCCN(C(=O)COc1ccc2ccccc2c1)C1CCC2(CC=CCC2)CC1 (stereo not drawn)	7.4 µM	3.7 µM	5.9 µM	8 µM	–	–	–	–	–	–	–
CC(C)N(CCCCN)C(=O)c1c[nH]c2ccccc12	106 µM	112 µM	222 µM	279 µM	–	–	–	–	–	–	–
N#Cc1ccc(CN(C(=O)CCCc2c(Cc3ccc(O)cc3)[nH]c3ccccc23)C2CCC(CC3CCC(N)CC3)CC2)cc1 (stereo not drawn)	1.4 µM	25 µM	2.4 µM	21 µM	–	–	–	–	–	–	–
NCCCN(Cc1ccc2ccccc2c1)C(=O)Cc1ccc2ccccc2c1	5.9 µM	12 µM	16 µM	267 µM	–	–	–	–	–	–	–
NCCCCCN(Cc1ccccc1)C(=O)[C@H](N)Cc1ccc(-c2ccccc2)cc1	3.9 µM	18 µM	14 µM	20 µM	–	–	–	–	–	–	–
NCCCN(CCc1ccccc1)C(=O)CCCc1c[nH]c2ccccc12	21 µM	30 µM	164 µM	33 µM	–	–	–	–	–	–	–
NCCCCCN(C/C(Cl)=C\c1ccccc1)C(=O)/C=C/c1c[nH]c2ccccc12	2.7 µM	27 µM	59 µM	5.4 µM	–	–	–	–	–	–	–
CC(Cc1ccccc1)CN(CCCCCCN)C(=O)c1cc2cc(O)ccc2[nH]1 (stereo not drawn)	2.9 µM	46 µM	9.8 µM	31 µM	–	–	–	–	–	–	–
CC(C)N(CCCCN)C(=O)c1c(Cc2ccc(O)cc2)[nH]c2ccccc12	90 µM	106 µM	165 µM	353 µM	–	–	–	–	–	–	–
COc1cc(Cl)c(CN(C(=O)CCCc2c(Cc3ccc(O)cc3)[nH]c3ccccc23)C2CCC(CC3CCC(N)CC3)CC2)cc1OC (stereo not drawn)	0.63 µM	8.3 µM	1.9 µM	11 µM	–	–	–	–	–	–	–
CCOc1cc(CN(C(=O)CCCc2c(Cc3ccc(O)cc3)[nH]c3ccccc23)C2CCC(CC3CCC(N)CC3)CC2)ccc1OC (stereo not drawn)	2.1 µM	26 µM	2.1 µM	12 µM	–	–	–	–	–	–	–
